From article PMC7317746 (Environmental and Molecular Mutagenesis, 2020)

Test system: male Sprague Dawley rats
Test: Pig‐a assay
Assay type: in vivo, rat
[1] = 1-Month Study, 40 mg/kg/day Days 1-3, Day 15, positive control
[2] = 1-Month Study, 40 mg/kg/day Days 1-3, Day 29, positive control
[3] = 1-Month Study, 40 mg/kg/day, Day -1 (pre-treatment)
[4] = 3-Day Study, 40 mg/kg/day Days 1-3, Day 15, positive control
[5] = 3-Day Study, 40 mg/kg/day Days 1-3, Day 30, positive control
[6] = 3-Day Study, 40 mg/kg/day Days 1-3, Day 45, positive control
[7] = 3-Day Study, 40 mg/kg/day, Day -4 (pre-treatment)

Question: What does the source list for `CCN(N=O)C(N)=O` [ENU, N‐ethyl‐N‐nitrosourea]?
Answer: %RETs mean ± SD [1]: 3.1 ± 0.4%; Number of CD59‐Neg RBCs per 10^6 RBCs mean ± SD [1]: 79.5 ± 12.3 per 10^6 RBCs; Number of CD59‐Neg RETs per 10^6 RETs mean ± SD [1]: 356.2 ± 64.4 per 10^6 RETs; %RETs mean ± SD [2]: 3.7 ± 0.7%; Number of CD59‐Neg RBCs per 10^6 RBCs mean ± SD [2]: 211.0 ± 26.9 per 10^6 RBCs; Number of CD59‐Neg RETs per 10^6 RETs mean ± SD [2]: 291.4 ± 33.7 per 10^6 RETs; %RETs mean ± SD [3]: 4.8 ± 0.7%; Number of CD59‐Neg RBCs per 10^6 RBCs mean ± SD [3]: 0.6 ± 0.3 per 10^6 RBCs; Number of CD59‐Neg RETs per 10^6 RETs mean ± SD [3]: 0.5 ± 0.5 per 10^6 RETs; %RETs mean ± SD [4]: 3.3 ± 1.1%; Number of CD59‐Neg RBCs per 10^6 RBCs mean ± SD [4]: 97.7 ± 7.2 per 10^6 RBCs; Number of CD59‐Neg RETs per 10^6 RETs mean ± SD [4]: 414.2 ± 6.5 per 10^6 RETs; %RETs mean ± SD [5]: 3.3 ± 0.6%; Number of CD59‐Neg RBCs per 10^6 RBCs mean ± SD [5]: 256.7 ± 62.0 per 10^6 RBCs; Number of CD59‐Neg RETs per 10^6 RETs mean ± SD [5]: 282.7 ± 77.4 per 10^6 RETs; %RETs mean ± SD [6]: 2.7 ± 0.7%; Number of CD59‐Neg RBCs per 10^6 RBCs mean ± SD [6]: 382.7 ± 26.3 per 10^6 RBCs; Number of CD59‐Neg RETs per 10^6 RETs mean ± SD [6]: 305.9 ± 59.5 per 10^6 RETs; %RETs mean ± SD [7]: 3.2 ± 0.4%; Number of CD59‐Neg RBCs per 10^6 RBCs mean ± SD [7]: 0.4 ± 0.1 per 10^6 RBCs; Number of CD59‐Neg RETs per 10^6 RETs mean ± SD [7]: 1.6 ± 0.7 per 10^6 RETs
